Values joined by “and” are separate entries in the source; they are usually repeats but may differ in a detail not shown here. Equal entries are not always repeated.
Test: Solid state stability under accelerated stability conditions (70° C./75% RH, one week), monitoring purity
Type: physicochemical
Settings: for Initial Purity: API purity before the accelerated stability stress test; for Final Purity (post stress test): after one week at 70° C./75% RH, solid state; for Recommended storage condition for use as an API: assigned from the accelerated stability result; for Solid state stability compared with amorphous free base and malonate salt: accelerated stability conditions 70° C./75% RH, one week
Protocol: The solid state stability is monitored using accelerated stability conditions (70° C./75% RH) for one week and then monitoring appearance, purity and form change. These accelerated conditions are used to assign an initial use period for the API.

SMILES | Initial Purity | Final Purity (post stress test) | Initial Purity (listed as malonate salt) [%] | Final Purity (post stress test) (listed as malonate salt) [%] | Recommended storage condition for use as an API | Solid state stability compared with amorphous free base and malonate salt
C=CC(=O)N1C[C@H](Nc2ncnc3[nH]ccc23)CC[C@@H]1C [Amorphous Free base, 1-((2S,5R)-5-((7H-Pyrrolo[2,3-d]pyrimidin-4-yl)amino)-2-methylpiperidin-1-yl)prop-2-en-1-one] | 99.3% | 41.3& % |  |  |  | 
C=CC(=O)N1C[C@H](Nc2ncnc3[nH]ccc23)CC[C@@H]1C.O=C(O)CC(=O)O [Malonate salt, 1-((2S,5R)-5-((7H-Pyrrolo[2,3-d]pyrimidin-4-yl)amino)-2-methyl-piperidin-1-yl)prop-2-en-1-one Malonic Acid Salt (Form 1)] | 99.5% | 81.6% | 99.5 | 81.6 | would require refrigeration | 
C=CC(=O)N1C[C@H](Nc2ncnc3[nH]ccc23)CC[C@@H]1C.O=P(O)(O)O [Phosphate salt, 1-((2S,5R)-5-((7H-Pyrrolo[2,3-d]pyrimidin-4-yl)amino)-2-meth-ylpiperidin-1-yl)prop-2-en-1-one Phosphoric Acid Salt (Form A)] | 99.6% | 99.5% |  |  |  | significantly improved
C=CC(=O)N1C[C@H](Nc2ncnc3[nH]ccc23)CC[C@@H]1C.Cc1ccc(S(=O)(=O)O)cc1 [Tosylate salt, 1-((2S,5R)-5-((7H-Pyrrolo[2,3-d]pyrimidin-4-yl)amino)-2-meth-ylpiperidin-1-yl)prop-2-en-1-one p-Toluenesulfonic Acid Salt (Form 1)] | 99.1% and 99.6% | 97.7% and 99.6% |  |  | would not require refrigerated storage conditions | significantly improved

Source: patent US12116368B2, “Pyrrolo[2,3-d]pyrimidine tosylate salt, crystalline form thereof and manufacturing process and intermediates thereto” (Pfizer Inc., priority 2018, dated 2024)
